Measurements reported in patent US20250206714A1, “COMPOSITIONS AND METHODS FOR TREATMENT OF INFLAMMATORY DISEASES” (Invea Therapeutics, Inc., priority 2022, published 2025).
“Also recorded” adds a separate entry of the source.

Experiments:
CYP 2C9 = molecular target: T1, CYP 2C9 (Homo sapiens, UniProt P11712); assay: Metabolic stability in human liver microsomes with CYP 2C9 inhibitor Sulfaphenazole; format: in vitro ADME; conditions: 1 μM + Sulfaphenazole (20 μM)
T1 construct: The experiment was conducted in human liver microsomes; from tissue; host or cells: human liver microsomes

IL-1β [1] = assay: LPS+ATP-induced model of inflammasome activation, plasma IL-1β by ELISA; format: in vivo, Balb/c mice; conditions: for % IL-1 β inhibition: mice plasma
Experimental: The procedures detailed here can be utilized for testing all compounds of the disclosure. The example utilizes LPS+ATP-induced model of inflammasome activation in 8-10 weeks old male Balb/c mice for in vivo testing.
8-10 weeks old male Balb/c mice were challenged by intraperitoneal (i.p.) injection of 200 μg/Kg (0.2 μg/g) LPS at t=0 hr, followed by i.p. injection of 5 mM solution of ATP at t=2 hr (2 h after LPS challenge). The compound of disclosure being tested for inhibitory activity (such as Compound 6) was administered both via intraperitoneal and oral route at −1 hr. Different doses of the compound of the disclosure were given to the mice […] as shown below.
MCC950, a specific small molecule inhibitor of NLRP3 inflammasome was used as a positive control to enable comparison of inhibitory activity of the compounds of the disclosure along with a known inhibitor. 2.5 hours after the LPS priming (or 0.5 hours after ATP administration), blood was collected via retro-orbital bleeding in heparinized blood collection tubes. Blood was centrifuged for 5 minutes at 10,000 rpm in a refrigerated centrifuge to obtain plasma. Separated plasma was used for cytokine assessment by ELISA. The standard curve (OD VS concentration) for IL-1β was also plotted and used to determine the IL-1β concentration for the OD values. The percentage of inhibition of IL-1β was calculated using the formula: […]

in vitro = conditions: for % rem @ 5 min / % rem @ 15 min / % rem @ 30 min / % rem @ 45 min: 1 µM; for % rem @ 5 min / % rem @ 15 min / % rem @ 30 min / % rem @ 45 min / half-life at 1 µM / microsomal CLint at 1 μM: pH 7.4; for half-life at 1 µM / microsomal CLint at 1 μM: microsomes
Experimental: All the tubes were pre-incubated at 37 t 1° C. for 5 min in a shaking water bath. Tubes of NADPH solution (10 mM) were similarly pre-incubated in similar conditions. After pre-incubation, 20 μL NADPH solution (10 mM) was added to the T0, T5, T15, T30, and T45 tubes, and 20 μL of buffer was added to the TControl tube which makes the final concentration to 1 μM respectively. T0 was immediately quenched with 200 μL of quenching solution containing warfarin as internal standard (IS). Similarly, at the end of the incubation period (5, 15, 30, and 45 minutes) of respective tubes, 200 μL of quenching solution containing warfarin as internal standard (IS) was added to each tube to stop the reaction. Resulting samples were centrifuged at 3220 g (relative centrifugal force) for 20 min. Supernatant (200 μL) from each reaction tube was taken for LC-MS/MS analysis.

CYP 2C19 = molecular target: T2, CYP 2C19 (Homo sapiens, UniProt P33261); assay: Metabolic stability in human liver microsomes with CYP 2C19 inhibitor Nootkatone; format: in vitro ADME; conditions: 1 μM + Nootkatone (20 μM)
T2 construct: The experiment was conducted in human liver microsomes; from tissue; host or cells: human liver microsomes

MDR1 (P-gp) = assay: in vitro; design: Papp A→B at 60 min / Papp B→A at 60 min / efflux ratio at 60 min / recovery at 60 min / % recovery Apical concentration-Basal concentration / % recovery Basal concentration-Apical concentration: dose or concentration left out as unconfirmed; conditions: dog
Experimental: (§1) Digoxin is used as reference and lucifer yellow is used as the integrity marker. […] Papp, efflux ratio and percent recovery are calculated.

MDR1 = assay: in vitro; design: Papp A→B at 60 min / Papp B→A at 60 min / efflux ratio at 60 min / recovery at 60 min / % recovery Apical concentration-Basal concentration / % recovery Basal concentration-Apical concentration: dose or concentration left out as unconfirmed; conditions: dog, MDCK-MDR1
Experimental: as §1

IL-1β [2] = assay: In vitro inhibition of production of IL-1β in PMA-differentiated THP-1 cells (LPS + ATP, ELISA); format: cell-based, Human; conditions: THP-1 derived macrophages
Experimental: The procedures detailed here can be utilized for testing all compounds of the disclosure.
Human monocytic THP-1 cells were treated with phorbol 12-myristate 13 acetate (PMA) (100 nM) overnight to differentiate monocytic cells into macrophages. Then, after 24 hours of rest, the differentiated cells were incubated with test compounds for 12 hours at concentrations 0.01, 0.1, 1, 10, 30, and 50 μM. Cells were then washed once with PBS and primed with E. coli LPS (0.1 μg/ml) for 4 h followed by stimulation with ATP (5 μM) for an additional 30 min. The cell culture supernatants were then collected and OD values for IL-1β levels were measured by ELISA. The standard curve (OD VS concentration) for IL-1β was also plotted and used to determine the IL-1β concentration for the OD values. The percentage of inhibition of IL-1β was calculated using the formula: […]
The percentage IL-1β inhibition at different compound concentrations were plotted in a sigmoid curve and IC50 values were interpolated in Graphpad Prism. Cell death was evaluated by propidium iodide staining and OD was measured at 490 nm. Cell viability was estimated with respect to DMSO control.

T2 sequence (P33261 whole entry): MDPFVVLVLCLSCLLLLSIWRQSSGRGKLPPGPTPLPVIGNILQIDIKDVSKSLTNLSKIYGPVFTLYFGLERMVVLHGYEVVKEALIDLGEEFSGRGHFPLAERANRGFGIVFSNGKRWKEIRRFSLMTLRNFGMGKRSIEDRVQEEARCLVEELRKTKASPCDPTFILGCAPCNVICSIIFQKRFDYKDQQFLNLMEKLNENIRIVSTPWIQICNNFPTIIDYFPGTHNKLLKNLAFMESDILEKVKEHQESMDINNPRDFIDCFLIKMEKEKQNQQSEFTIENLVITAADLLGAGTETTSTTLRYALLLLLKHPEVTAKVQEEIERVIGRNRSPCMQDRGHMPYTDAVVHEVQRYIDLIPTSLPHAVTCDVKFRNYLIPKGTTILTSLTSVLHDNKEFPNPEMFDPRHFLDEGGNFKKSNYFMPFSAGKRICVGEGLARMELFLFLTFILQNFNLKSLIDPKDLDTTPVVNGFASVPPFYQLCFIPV
T1 sequence (P11712 whole entry): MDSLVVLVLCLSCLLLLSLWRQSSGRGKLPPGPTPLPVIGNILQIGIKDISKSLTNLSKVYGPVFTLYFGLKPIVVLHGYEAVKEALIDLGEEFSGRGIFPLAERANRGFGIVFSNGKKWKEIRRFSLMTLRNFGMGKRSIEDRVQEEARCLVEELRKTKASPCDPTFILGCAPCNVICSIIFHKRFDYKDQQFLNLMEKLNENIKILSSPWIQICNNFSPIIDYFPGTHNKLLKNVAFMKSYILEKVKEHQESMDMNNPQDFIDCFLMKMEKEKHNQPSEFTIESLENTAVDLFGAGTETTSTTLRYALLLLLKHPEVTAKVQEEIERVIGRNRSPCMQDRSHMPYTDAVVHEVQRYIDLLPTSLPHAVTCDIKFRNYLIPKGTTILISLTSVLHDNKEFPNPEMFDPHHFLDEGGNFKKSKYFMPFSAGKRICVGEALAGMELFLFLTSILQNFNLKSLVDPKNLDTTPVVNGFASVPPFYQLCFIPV

With `O=C1Nc2ccccc2N(C(=O)CCl)c2ccc(F)cc21` [Compound 6, 5-(2-chloroacetyl)-2-fluoro-5,10-dihydro-11H-dibenzo[b,e][1,4]diazepin-11-one] as the compound, how does the “% rem @ 5 min” value (CYP 2C9) read?
The value was 69.7%.

What about the “% rem @ 15 min” value (CYP 2C9) of the same compound?
Its value is 63.3%.

And the “% rem @ 30 min” value (CYP 2C9)?
The value was 73.8%.

What about the “% rem @ 45 min” value (CYP 2C9) of the same compound?
Its value is 54.3%.

And the half-life at 1 µM (CYP 2C9; pH 7.4, with Sulfaphenazole 20 μM)?
The half-life at 1 µM was 1.28 h.

What about the microsomal CLint at 1 μM (CYP 2C9; pH 7.4, with Sulfaphenazole 20 μM, read-out: mCLint) of the same compound?
Its microsomal CLint at 1 μM is 18 µL/min/mg.

And the “% IL-1 β inhibition” value (IL-1β [1]; 1 mg/kg, Intraperitoneal)?
Its value is 52%.

And the “% IL-1 β inhibition” value (IL-1β [1]; 10 mg/kg, Intraperitoneal)?
Its value is 79%.

What about the “% IL-1 β inhibition” value (IL-1β [1]; 10 mg/kg, Oral) of the same compound?
The value was 46%.

What about the “plasma IL-1β levels under in vivo conditions (FIG. 4, in words)” value (IL-1β [1]; escalating doses, LPS+ATP mice model) of the same compound?
The value was “dose dependent reduction of IL-β; also recorded: dose dependent decrease in IL-1β levels”.

What about the “stability / metabolism by liver microsomes (in words)” value (in vitro) of the same compound?
Its value is “medium to highly stability”.

And the “% rem @ 5 min” value (in vitro; human)?
Its value is 93.5%.

What about the “% rem @ 15 min” value (in vitro; human) of the same compound?
Its value is 92.9%.

What about the “% rem @ 30 min” value (in vitro; human) of the same compound?
The value was 91.3%.

And the “% rem @ 45 min” value (in vitro; human)?
The value was 67.8%.

What about the half-life at 1 µM (in vitro; human) of the same compound?
The half-life at 1 µM was 1.6 h.

What about the microsomal CLint at 1 μM (in vitro; human) of the same compound?
The microsomal CLint at 1 μM was 14.4 µL/min/mg.

And the “% rem @ 5 min” value (in vitro; mouse)?
The value was roughly 100%.

And the “% rem @ 15 min” value (in vitro; mouse)?
Its value is roughly 100%.

What about the “% rem @ 30 min” value (in vitro; mouse) of the same compound?
Its value is 79.3%.

And the “% rem @ 45 min” value (in vitro; mouse)?
Its value is 59.8%.

And the half-life at 1 µM (in vitro; mouse)?
Its half-life at 1 µM is 0.95 h.

What about the microsomal CLint at 1 μM (in vitro; mouse) of the same compound?
The microsomal CLint at 1 μM was 24.3 µL/min/mg.

And the “% rem @ 5 min” value (in vitro; rat)?
Its value is 98.7%.

What about the “% rem @ 15 min” value (in vitro; rat) of the same compound?
The value was 83.1%.

What about the “% rem @ 30 min” value (in vitro; rat) of the same compound?
Its value is 75.3%.

And the “% rem @ 45 min” value (in vitro; rat)?
Its value is 74.0%.

What about the half-life at 1 µM (in vitro; rat) of the same compound?
Its half-life at 1 µM is 1.58 h.

And the microsomal CLint at 1 μM (in vitro; rat)?
The microsomal CLint at 1 μM was 14.6 µL/min/mg.

What about the “% rem @ 5 min” value (CYP 2C19) of the same compound?
The value was roughly 100%.

And the “% rem @ 15 min” value (CYP 2C19)?
The value was 98.6%.

What about the “% rem @ 30 min” value (CYP 2C19) of the same compound?
Its value is 84.6%.

What about the “% rem @ 45 min” value (CYP 2C19) of the same compound?
Its value is 58.7%.

What about the half-life at 1 µM (CYP 2C19; pH 7.4, with Nootkatone 20 μM) of the same compound?
Its half-life at 1 µM is 0.91 h.

What about the microsomal CLint at 1 μM (CYP 2C19; pH 7.4, with Nootkatone 20 μM, read-out: mCLint) of the same compound?
Its microsomal CLint at 1 μM is 25.4 µL/min/mg.

What about the efflux ratio at 60 min (MDR1 (P-gp); MDCK-MDR1) of the same compound?
The efflux ratio at 60 min was 1.22.

And the recovery at 60 min (MDR1 (P-gp); MDCK-MDR1, % recovery Apical concentration-Basal concentration)?
Its recovery at 60 min is 49.1%.

And the recovery at 60 min (MDR1 (P-gp); MDCK-MDR1, % recovery Basal concentration-Apical concentration)?
The recovery at 60 min was roughly 100%.

And the Papp A→B at 60 min (MDR1)?
Its Papp A→B at 60 min is 26 ×10⁻⁶ cm/s.

And the Papp A→B at 60 min, 5 µM (MDR1)?
The Papp A→B at 60 min, 5 µM was 26 ×10⁻⁶ cm/s.

What about the Papp B→A at 60 min (MDR1) of the same compound?
Its Papp B→A at 60 min is 31.6 ×10⁻⁶ cm/s.

And the efflux ratio at 60 min, 5 µM (MDR1)?
The efflux ratio at 60 min, 5 µM was less than 2.

And the “IL-1β levels under in vitro conditions (FIG. 3, percentage of cytokine inhibition against concentration)” value (IL-1β [2])?
The value was “dose dependent decrease in IL-1β levels”.
